ChEMBL document CHEMBL1201862, “PubChem BioAssay data set” (2004)
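Cells were grown in 96-well plates and exposed to each compound for 48 hours at five concentrations; endpoints were interpolated linearly between bracketing concentrations, or set to the highest concentration if not reached. At the GI50, growth is halved.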 Activity calls are given as the source filed them. Cut-off read from the data, not from the text of the source: active = GI50 up to about 1.1 µM and inactive = higher.

Experiments:
Test in all cases: inhibition of tumour cell growth, NCI panel, 48 h
786-0 = tested on: 786-0
CCRF-CEM = tested on: CCRF-CEM
COLO 205 = tested on: COLO 205
EKVX = tested on: EKVX
HCC 2998 = tested on: HCC 2998
K562 = tested on: K562
KM12 = tested on: KM12
OVCAR-3 = tested on: OVCAR-3
SF-268 = tested on: SF-268
SK-MEL-28 = tested on: SK-MEL-28
SK-MEL-2 = tested on: SK-MEL-2
SK-MEL-5 = tested on: SK-MEL-5
SR = tested on: SR
SW-620 = tested on: SW-620
U-251 = tested on: U-251
UACC-257 = tested on: UACC-257
HT-29 = tested on: HT-29
NCI-H23 = tested on: NCI-H23

Measured: GI50

Cc1ccc(Nc2cccc3c2C(=O)c2cccc(Nc4ccc(C)cc4S(=O)(=O)O)c2C3=O)c(S(=O)(=O)O)c1
inactive: 786-0 > 100 µM | CCRF-CEM > 100 µM | COLO 205 > 100 µM | EKVX > 100 µM | HCC 2998 > 100 µM | K562 > 100 µM | KM12 > 100 µM | OVCAR-3 > 100 µM | SF-268 > 100 µM | SK-MEL-28 > 100 µM | SK-MEL-2 > 100 µM | SK-MEL-5 > 100 µM | SR > 100 µM | SW-620 > 100 µM | U-251 > 100 µM | UACC-257 > 100 µM

O=C(CC(=O)c1ccccc1)c1ccccc1.O=C(CC(=O)c1ccccc1)c1ccccc1.O=C(CC(=O)c1ccccc1)c1ccccc1.[SiH4]
inactive: 786-0 7.74 µM | CCRF-CEM 1.14 µM | COLO 205 2.21 µM | EKVX 6.65 µM | HCC 2998 3.6 µM | HT-29 4.41 µM | K562 3.88 µM | KM12 3.48 µM | NCI-H23 3.15 µM | OVCAR-3 2.42 µM | SF-268 3.37 µM | SK-MEL-28 7.76 µM | SK-MEL-5 4.66 µM | SR 3.57 µM | SW-620 4.15 µM | U-251 2.86 µM | UACC-257 9.42 µM

Brc1cc2c(cc1Br)CN(c1ccccc1)C2
inactive: 786-0 > 100 µM | CCRF-CEM > 100 µM | COLO 205 > 100 µM | EKVX > 100 µM | HCC 2998 > 100 µM | HT-29 > 100 µM | K562 80 µM | KM12 > 100 µM | NCI-H23 > 100 µM | OVCAR-3 > 100 µM | SF-268 > 100 µM | SK-MEL-28 > 100 µM | SK-MEL-2 > 100 µM | SK-MEL-5 > 100 µM | SW-620 > 100 µM | U-251 > 100 µM | UACC-257 > 100 µM

COc1ccc(-c2oc3cc(O)c(OC)c(O)c3c(=O)c2OC2OC(CO)C(O)C(O)C2O)cc1 (centres undefined)
inactive: 786-0 > 100 µM | CCRF-CEM > 100 µM | COLO 205 > 100 µM | EKVX > 100 µM | HCC 2998 > 100 µM | HT-29 > 100 µM | K562 > 100 µM | KM12 > 100 µM | NCI-H23 > 100 µM | OVCAR-3 > 100 µM | SK-MEL-28 > 100 µM | SK-MEL-2 > 100 µM | SK-MEL-5 > 100 µM | SW-620 > 100 µM | U-251 > 100 µM

C/C(CC(=O)Nc1ccc(NC(=O)/C(C)=N/NS(=O)(=O)c2ccc(C)cc2)cc1)=N\NS(=O)(=O)c1ccc(C)cc1
inactive: 786-0 > 100 µM | CCRF-CEM > 10 µM | COLO 205 > 100 µM | EKVX > 100 µM | HCC 2998 > 100 µM | HT-29 > 100 µM | K562 > 100 µM | KM12 > 100 µM | NCI-H23 > 100 µM | OVCAR-3 > 100 µM | SF-268 > 100 µM | SK-MEL-28 > 100 µM | SK-MEL-2 > 100 µM | SK-MEL-5 > 100 µM | SW-620 > 100 µM | U-251 > 100 µM | UACC-257 > 100 µM

N=C(N)NS(=O)(=O)c1ccc(NC(=O)c2cccc3c(Nc4ccc(S(N)(=O)=O)cc4)c4ccccc4nc23)cc1
inactive: 786-0 > 100 µM | CCRF-CEM > 100 µM | COLO 205 > 100 µM | EKVX > 100 µM | HCC 2998 > 100 µM | HT-29 > 100 µM | K562 > 100 µM | KM12 > 100 µM | NCI-H23 > 100 µM | OVCAR-3 > 100 µM | SF-268 > 100 µM | SK-MEL-28 > 100 µM | SK-MEL-2 > 100 µM | SK-MEL-5 > 100 µM | SW-620 > 100 µM | U-251 > 100 µM | UACC-257 > 100 µM

C[n+]1c2ccccc2c(NC(CCC(N)=O)C(=O)O)c2ccccc21 (centres undefined)
inactive: 786-0 > 100 µM | COLO 205 > 100 µM | EKVX > 100 µM | HCC 2998 > 100 µM | HT-29 > 100 µM | K562 > 100 µM | KM12 73.5 µM | NCI-H23 > 100 µM | OVCAR-3 > 100 µM | SF-268 > 100 µM | SK-MEL-2 > 100 µM | SK-MEL-5 > 100 µM | SR > 100 µM | SW-620 > 100 µM | U-251 > 100 µM | UACC-257 > 100 µM

NC(CNc1ccc(O)cc1)C(=O)O (centres undefined)
inactive: 786-0 16 µM | CCRF-CEM 33.6 µM | COLO 205 > 100 µM | EKVX > 100 µM | HT-29 > 100 µM | K562 89.1 µM | KM12 > 100 µM | OVCAR-3 > 100 µM | SF-268 > 100 µM | SK-MEL-28 > 100 µM | SK-MEL-2 60.4 µM | SK-MEL-5 > 100 µM | SR 87.9 µM | SW-620 > 100 µM | U-251 > 100 µM | UACC-257 > 100 µM

CCCCCCCC(=O)OCC(C[As](=O)(O)O)OC(=O)CCCCCCC (centres undefined)
inactive: 786-0 17.2 µM | CCRF-CEM 6.49 µM | COLO 205 14.3 µM | EKVX 18.3 µM | HCC 2998 17.7 µM | HT-29 17.1 µM | K562 20.6 µM | NCI-H23 15.2 µM | SF-268 14.9 µM | SK-MEL-28 15.7 µM | SK-MEL-5 18.1 µM | SR 16.6 µM | SW-620 15.6 µM | U-251 15 µM | UACC-257 14.8 µM

C[C@H]1CC[P+](C)(c2ccccc2)C1 (some centres undefined)
inactive: 786-0 > 100 µM | CCRF-CEM > 100 µM | COLO 205 > 100 µM | EKVX > 100 µM | HCC 2998 > 100 µM | HT-29 > 100 µM | K562 > 100 µM | KM12 > 100 µM | NCI-H23 > 100 µM | OVCAR-3 > 100 µM | SK-MEL-28 > 100 µM | SK-MEL-2 > 100 µM | SK-MEL-5 > 100 µM | SR > 100 µM | SW-620 > 100 µM | U-251 > 100 µM | UACC-257 > 100 µM

Cc1cc2c(cc1C)[n+]([O-])c(C(=O)C/C(=N/NC(=O)c1ccccc1O)C(=O)Nc1ccccc1C(C)C)c(C)[n+]2[O-]
inactive: 786-0 88.1 µM | CCRF-CEM 27.3 µM | COLO 205 > 100 µM | EKVX > 100 µM | HCC 2998 > 100 µM | HT-29 > 100 µM | K562 31.6 µM | KM12 > 100 µM | NCI-H23 > 100 µM | OVCAR-3 37.2 µM | SF-268 68.2 µM | SK-MEL-28 > 100 µM | SK-MEL-2 > 100 µM | SK-MEL-5 > 100 µM | SW-620 97.1 µM | U-251 > 100 µM | UACC-257 > 100 µM

CC(=O)OCC1OC(n2c(=O)n(-c3ccccc3)c(=O)c3cc(Br)cc(Br)c32)C(OC(C)=O)C(OC(C)=O)C1OC(C)=O (centres undefined)
inactive: 786-0 > 100 µM | CCRF-CEM > 100 µM | COLO 205 > 100 µM | EKVX > 100 µM | HCC 2998 > 100 µM | HT-29 > 100 µM | K562 > 100 µM | KM12 > 100 µM | NCI-H23 > 100 µM | OVCAR-3 > 100 µM | SF-268 > 100 µM | SK-MEL-28 > 100 µM | SK-MEL-2 > 100 µM | SK-MEL-5 > 100 µM | SW-620 > 100 µM | U-251 71 µM | UACC-257 > 100 µM

CCc1nc2c([nH]1)C(=O)c1ccccc1C2=O
inactive: 786-0 61.4 µM | CCRF-CEM 48.5 µM | EKVX 94.4 µM | HCC 2998 31.8 µM | HT-29 43.2 µM | K562 55 µM | KM12 59.7 µM | NCI-H23 29 µM | OVCAR-3 23 µM | SF-268 70 µM | SK-MEL-28 > 100 µM | SK-MEL-2 > 100 µM | SR 38.5 µM | SW-620 43.4 µM | U-251 55.5 µM | UACC-257 26.5 µM

O=S1OC(c2ccccc2)(c2ccccc2)C(c2ccccc2)(c2ccccc2)O1
inactive: 786-0 > 100 µM | CCRF-CEM 7.01 µM | COLO 205 > 100 µM | EKVX 48.3 µM | HCC 2998 > 100 µM | HT-29 7.36 µM | K562 25.1 µM | KM12 5.43 µM | NCI-H23 > 52.7 µM | OVCAR-3 > 100 µM | SF-268 > 91.4 µM | SK-MEL-28 > 100 µM | SK-MEL-5 15.4 µM | SR 8.93 µM | SW-620 > 100 µM | U-251 25.1 µM | UACC-257 46.6 µM

O=C(Nc1ccccc1Cl)c1ccc([N+](=O)[O-])cc1
inactive: 786-0 45.7 µM | CCRF-CEM > 100 µM | COLO 205 > 100 µM | EKVX 76.4 µM | HCC 2998 > 100 µM | HT-29 > 100 µM | K562 > 100 µM | KM12 > 100 µM | NCI-H23 > 100 µM | OVCAR-3 > 100 µM | SF-268 > 100 µM | SK-MEL-28 > 100 µM | SK-MEL-2 > 100 µM | SK-MEL-5 > 100 µM | SW-620 > 100 µM | U-251 > 100 µM | UACC-257 > 100 µM

c1ccc(C2OC3(CCC[C@H]4C[C@H]43)O[C@H]2c2ccccc2)cc1 (some centres undefined)
inactive: 786-0 57 µM | CCRF-CEM 22.2 µM | COLO 205 24.7 µM | EKVX 32.8 µM | HCC 2998 39.9 µM | HT-29 31.3 µM | K562 22.7 µM | KM12 29 µM | NCI-H23 38.6 µM | OVCAR-3 37.4 µM | SF-268 73.8 µM | SK-MEL-2 21.5 µM | SK-MEL-5 25.3 µM | SR 27.2 µM | SW-620 31.2 µM | U-251 41.1 µM | UACC-257 30.9 µM
